Counter-ions that a name gives are not always drawn. Like-named read-outs stand apart in the source and are kept apart here.
Molecular target: T1, acetylcholinesterase (Mus musculus, UniProt P21836)
T1 construct: A mouse brain homogenate was used as an acetylcholinesterase source; from tissue; host or cells: mouse brain homogenate
Test: biochemical
Assay type: biochemical

[1] = read-out: AChE inhibitory activity IC50
[2] = in vitro, mouse brain homogenate, Table 10, read-out: Inhibitory activity on AChE IC50
[3] = read-out: Inhibitory activity on AChE IC50

T1 sequence (P21836 32-614): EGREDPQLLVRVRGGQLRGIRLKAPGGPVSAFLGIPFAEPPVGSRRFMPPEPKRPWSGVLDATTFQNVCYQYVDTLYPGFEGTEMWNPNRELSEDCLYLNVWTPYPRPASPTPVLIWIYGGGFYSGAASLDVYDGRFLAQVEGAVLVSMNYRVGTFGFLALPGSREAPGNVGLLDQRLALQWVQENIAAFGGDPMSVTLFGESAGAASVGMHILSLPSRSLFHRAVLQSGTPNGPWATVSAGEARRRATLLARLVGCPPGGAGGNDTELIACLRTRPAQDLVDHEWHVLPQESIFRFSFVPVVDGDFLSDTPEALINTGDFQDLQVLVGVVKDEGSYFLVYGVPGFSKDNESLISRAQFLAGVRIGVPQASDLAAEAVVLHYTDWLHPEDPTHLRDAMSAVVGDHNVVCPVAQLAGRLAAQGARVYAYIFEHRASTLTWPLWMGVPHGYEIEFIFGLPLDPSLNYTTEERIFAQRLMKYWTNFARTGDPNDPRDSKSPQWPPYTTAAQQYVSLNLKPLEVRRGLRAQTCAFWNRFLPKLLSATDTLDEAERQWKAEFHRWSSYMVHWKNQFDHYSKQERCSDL

Which IC50 does the source give for O=C1c2cccnc2CN1CCC1CCN(Cc2ccccc2)CC1 [Example 5, 2-[4'-(1'-Benzylpiperidine)ethyl]-2,3-dihydro-1-oxypyrrolo[3,4-b]pyridine dihydrochloride] here?
The IC50 was 100 nM.

How did the IC50 turn out when COc1cc2c(cc1OC)C(=O)N(CCC1CCN(Cc3ccccc3)CC1)C2 [Example 6, 2-[4'-Benzylpiperidine)ethyl]-2,3-dihydro-5,6-dimethoxyoxypyrrolo[3,4-]benzene hydrochloride] was run?
Its IC50 is 17 nM.

Which IC50 [1] does the source give for O=C1Nc2ccccc2CN1CCC1CCN(Cc2ccccc2)CC1 [Example 8] here?
The IC50 was 13 nM.

With CN1CC(=O)N(CCC2CCN(Cc3ccccc3)CC2)c2ccccc2C1 [Example 9, 1-[4'-(1'-Benzylpiperidine)ethyl-1,2,3,4-tetrahydro-4-methyl-5H-[1,4]-benzodiazepin-2-one dihydrochloride] as the compound, how does the IC50 read?
Its IC50 is 51 nM.

For O=C1CCCc2ccccc2N1CCC1CCN(Cc2ccccc2)CC1 [Example 10, 1-[4'-(1'-Benzylpiperidine)ethyl]-1,2,3,4-tetrahydro-5H-1-benzazepin-2-one hydrochloride], which IC50 is on record?
The IC50 was 9 nM.

How did the IC50 [1] turn out when O=C1c2ccccc2CCc2ccccc2N1CCC1CCN(Cc2ccccc2)CC1 [Example 11, N-[4-(1'-Benzylpiperidyl)ethyl]-5,6,11,12-tetrahydrodibenzo[b,f]azocin-6-one hydrochloride] was run?
The IC50 was 68 nM.

How did the IC50 turn out when CN1c2ccccc2C(=O)N(CCC2CCN(Cc3ccccc3)CC2)c2ccccc21 [Example 12, 10-[4'-(1'-Benzylpiperidine)ethyl]-10,11-dihydro-5-methyl-5H-dibenzo[b,e][1,4]diazepin-11-one hydrochloride] was run?
Its IC50 is 40 nM.

For O=C(NCCC1CCN(Cc2ccc(O)cc2)CC1)c1cnc2ccccc2n1 [Example 14, N-[4'-(1'-(p-Hydroxybenzyl)piperidine)ethyl]-2-quinoxalinecarboxylic amide hydrochloride], which IC50 is on record?
The IC50 was 38 nM.

Which IC50 [1] does the source give for CC(=O)N(CCC1CCN(Cc2ccccc2)CC1)c1ccccc1 [Example 17, N-[4'-(1'-Benzylpiperidyl)ethyl]acetanilide] here?
The IC50 was 52 nM.

With COc1cc(OC)cc(N(CCC2CCN(Cc3ccccc3)CC2)C(=O)C=Cc2ccc(F)cc2)c1 [Example 18, N-(3'5'-Dimethoxyphenyl)-N-[4'-(1'--benzylpiperidyl)-ethyl]-4-fluorocinnamamide hydrichloride] as the compound, how does the IC50 read?
The IC50 was 680 nM.

For O=C(CCC1CCN(Cc2ccccc2)CC1)Nc1ccccc1 [Example 20, 4-(1-Benzylpiperidine)propanailide hydrochloride], which IC50 [1] is on record?
The IC50 was 540 nM.

With O=C(NCC1CCN(Cc2ccccc2)C1)c1ccccc1 (stereo not drawn) [Example 21, N-[3'-(1'-Benzylpyrrolidine)methyl]benzamide hydrochloride] as the compound, how does the IC50 read?
Its IC50 is 50000 nM.

COc1ccc(C(=O)CCCC2CCN(Cc3ccccc3)CC2)cc1 [Example 23, 4-[4'-N-Benzyl)piperidyl]-p-methoxybutyrophenone hydrochloride] was tested. Which IC50 [1] did it give?
The IC50 was 72 nM.

O=C(NCCC1CCN(Cc2ccccc2)CC1)c1ccoc1 [Example 24, N-[4'-(1'-Benzylpiperidine)ethyl]-3-furancarboxylic amide hydrochloride] was tested. Which IC50 did it give?
Its IC50 is 1100 nM.

With CN(CCC1CCN(CC2CCCCC2)CC1)C(=O)c1ccccc1 [Example 27, N-[4'-(1'-Cyclohexylmethylpiperidyl)ethyl]-N-methylbenzamide hydrochloride] as the compound, how does the IC50 [1] read?
Its IC50 is 410 nM.

Which IC50 [1] does the source give for COc1cc2c(c(OC)c1)C(=O)C(CC1CCN(Cc3ccccc3)CC1)C2 (stereo not drawn) [Example 31] here?
The IC50 was 25 nM.

With O=C(CCCC1CCN(Cc2ccccc2)CC1)c1ccncc1 [Example 45] as the compound, how does the IC50 read?
The IC50 was 360 nM.

How did the IC50 turn out when O=C(CCC1CCN(Cc2ccccc2)CC1)Nc1ccncc1 [Example 48] was run?
The IC50 was 19 nM.

For O=C1c2ccccc2NCN1CCC1CCN(Cc2ccccc2)CC1 [Example 52], which IC50 [1] is on record?
The IC50 was 800 nM.

How did the IC50 [1] turn out when O=C1c2ccccc2CCN1CCC1CCN(Cc2ccccc2)CC1 [Example 54] was run?
The IC50 was 1000 nM.

Which IC50 [1] does the source give for O=C1Cc2ccccc2CN1CCC1CCN(Cc2ccccc2)CC1 [Example 56] here?
The IC50 was 17 nM.

How did the IC50 turn out when COc1ccc2c(c1)CCCC(=O)N2CCC1CCN(Cc2ccccc2)CC1 [Example 62] was run?
Its IC50 is 7.5 nM.

For COc1cccc2c1CCCC(=O)N2CCC1CCN(Cc2ccccc2)CC1 [Example 65], which IC50 is on record?
The IC50 was 1.6 nM.

With COc1cc2c(cc1OC)C(=O)N(C)C(CCC1CCN(Cc3ccccc3)CC1)C2 (stereo not drawn) [Example 67] as the compound, how does the IC50 read?
Its IC50 is 100 nM.

How did the IC50 turn out when CN1CC(=O)N(CCC2CCN(Cc3ccccc3)CC2)c2ccccc2C1=O [Example 70] was run?
Its IC50 is 280 nM.

With CCOC(=O)c1nccnc1C(=O)NCCC1CCN(Cc2ccccc2)CC1 [Example 72] as the compound, how does the IC50 read?
Its IC50 is 20 nM.

Which IC50 [1] does the source give for O=C(c1ccc(F)cc1)N(CCC1CCN(Cc2ccccc2)CC1)c1ccccc1 [Example 89] here?
Its IC50 is 18 nM.

How did the IC50 turn out when O=C(c1cnccn1)N(CCC1CCN(Cc2ccccc2)CC1)c1ccccc1 [Example 95] was run?
Its IC50 is 85 nM.

Which IC50 does the source give for CC(=O)N(CCC1CCN(Cc2ccccc2)CC1)c1ccncc1 [Example 101] here?
Its IC50 is 110 nM.

With CN(CCC1CCN(Cc2ccccc2)CC1)C(=O)c1ccco1 [Example 120] as the compound, how does the IC50 read?
Its IC50 is 190 nM.

Which IC50 does the source give for O=C(NCCC1CCN(Cc2ccco2)CC1)c1ccccc1 [Example 124] here?
Its IC50 is 2800 nM.

O=C1c2ccccc2Oc2ccccc2N1CCC1CCN(Cc2ccccc2)CC1 [Example 176] was tested. Which IC50 did it give?
Its IC50 is 4 nM.

COc1cc2c(cc1OC)C(=O)C(CC1CCNCC1)C2 (stereo not drawn) [Example 179, 4-[(5,6-Dimethoxy-1-indanon)-2-yl]methylpiperidine hydrochloride] was tested. Which IC50 [2] did it give?
The IC50 was 5400 nM.

How did the IC50 [3] turn out when COc1cc2c(cc1OC)C(=O)C(CC1CCN(Cc3cccc(F)c3)CC1)C2 (stereo not drawn) [Example 180, 1-(3-Fluorobenzyl)-4-[(5,6-dimethoxy-1-indanon)-2-yl]methylpiperidine hydrochloride] was run?
The IC50 was 1 nM.

How did the IC50 turn out when CCOC(=O)N1CCC(CC2Cc3cc(OC)c(OC)cc3C2=O)CC1 (stereo not drawn) [Example 182, 4-[(5,6-Dimethoxy-1-indanon)-2-yl]methyl-1-ethoxycarbonylpiperidine] was run?
Its IC50 is 800 nM.

Which IC50 does the source give for CCOC(=O)N1CCC(CC2=Cc3cc(OC)c(OC)cc3C2=O)CC1 [Example 183, 4-[(5,6-Dimethoxy-1-indenon)-2-yl]methyl-1-ethoxycarbonylpiperidine] here?
Its IC50 is 5300 nM.

How did the IC50 turn out when O=C1C(=CC2CCN(Cc3ccccc3)CC2)C(=O)c2ccccc21 [Example 184, 1-Benzyl-4-[(1,3-indanedion)-2-ylidenyl]methylpiperidine] was run?
Its IC50 is over 5000 nM.

For COc1cc2c(cc1OC)CC(CC1CCN(Cc3ccccc3)CC1)=C2 [Example 185, 1-Benzyl-4-[(5,6-dimethoxyinden)-2-yl]methylpiperidine hydrochloride], which IC50 is on record?
Its IC50 is 0.82 nM.

For COc1cc2c(cc1OC)C(=O)C(=CCCC1CCN(Cc3ccccc3)CC1)C2 [Example 186, 1-Benzyl-4-[3-[(5,6-dimethoxy-1-indanon)-2-ylidenyl]]propylpiperidine hydrochloride], which IC50 is on record?
Its IC50 is 1.5 nM.

With COc1cc2c(cc1OC)C(=O)C(CCCC1CCN(Cc3ccccc3)CC1)C2 (stereo not drawn) [Example 187, 1-Benzyl-4-[3-[(5,6-dimethoxy-1-indanon)-2-yl]]propylpiperidine hydrochloride] as the compound, how does the IC50 read?
Its IC50 is 4400 nM.

Which IC50 [3] does the source give for COc1ccc2c(c1)C(=O)C(CC1CCN(Cc3ccccc3)CC1)C2 (stereo not drawn) [Example 188] here?
The IC50 was 81 nM.

COc1cccc2c1CC(CC1CCN(Cc3ccccc3)CC1)C2=O (stereo not drawn) [Example 189] was tested. Which IC50 [3] did it give?
The IC50 was 12 nM.

COc1cc2c(c(OC)c1OC)C(=O)C(CC1CCN(Cc3ccccc3)CC1)C2 (stereo not drawn) [Example 192] was tested. Which IC50 [2] did it give?
Its IC50 is 13 nM.

How did the IC50 turn out when O=C1c2cc(F)ccc2CC1CC1CCN(Cc2ccccc2)CC1 (stereo not drawn) [Example 193] was run?
The IC50 was 200 nM.

With Cc1ccc2c(c1)C(=O)C(CC1CCN(Cc3ccccc3)CC1)C2 (stereo not drawn) [Example 194] as the compound, how does the IC50 read?
Its IC50 is 69 nM.

Which IC50 does the source give for Cc1cccc2c1CC(CC1CCN(Cc3ccccc3)CC1)C2=O (stereo not drawn) [Example 195] here?
Its IC50 is 7.1 nM.

For COc1cc2c(cc1O)C(=O)C(CC1CCN(Cc3ccccc3)CC1)C2 (stereo not drawn) [Example 196], which IC50 is on record?
The IC50 was 1.3 nM.

With COc1cc2c(cc1O)CC(CC1CCN(Cc3ccccc3)CC1)C2=O (stereo not drawn) [Example 197] as the compound, how does the IC50 read?
The IC50 was 380 nM.

How did the IC50 turn out when CCOc1cc2c(cc1OCC)C(=O)C(CC1CCN(Cc3ccccc3)CC1)C2 (stereo not drawn) [Example 198] was run?
Its IC50 is 5.4 nM.

O=C1c2cc3c(cc2CC1CC1CCN(Cc2ccccc2)CC1)OCO3 (stereo not drawn) [Example 199] was tested. Which IC50 did it give?
Its IC50 is 23 nM.

How did the IC50 turn out when CC(CC1CCN(Cc2ccccc2)CC1)C(=O)c1ccccc1 (stereo not drawn) [Example 202] was run?
The IC50 was 1200 nM.

COc1cc2c(cc1OC(C)C)CC(CC1CCN(Cc3ccccc3)CC1)C2=O (stereo not drawn) [Example 203] was tested. Which IC50 did it give?
Its IC50 is 9 nM.

For COc1cc2c(cc1OC)C(=O)C(CCCCC1CCN(Cc3ccccc3)CC1)C2 (stereo not drawn) [Example 204], which IC50 [3] is on record?
Its IC50 is 35 nM.

With COc1cc2c(cc1OC)C(=O)C(CCCCCC1CCN(Cc3ccccc3)CC1)C2 (stereo not drawn) [Example 205] as the compound, how does the IC50 [3] read?
Its IC50 is 14 nM.

COc1ccc2c(c1)C(=O)C(=CC1CCN(Cc3ccccc3)CC1)C2 [Example 206] was tested. Which IC50 [3] did it give?
The IC50 was 410 nM.

For COc1cccc2c1CC(=CC1CCN(Cc3ccccc3)CC1)C2=O [Example 207], which IC50 is on record?
The IC50 was 49 nM.

Which IC50 does the source give for COc1ccc2c(c1OC)CC(=CC1CCN(Cc3ccccc3)CC1)C2=O [Example 208] here?
Its IC50 is 62 nM.

COc1ccc2c(c1OC)C(=O)C(=CC1CCN(Cc3ccccc3)CC1)C2 [Example 209] was tested. Which IC50 did it give?
The IC50 was 430 nM.

For COc1cc2c(c(OC)c1OC)C(=O)C(=CC1CCN(Cc3ccccc3)CC1)C2 [Example 210], which IC50 is on record?
Its IC50 is 60 nM.

With O=C1C(=CC2CCN(Cc3ccccc3)CC2)Cc2ccc(F)cc21 [Example 211] as the compound, how does the IC50 read?
Its IC50 is 2000 nM.

Which IC50 does the source give for Cc1ccc2c(c1)C(=O)C(=CC1CCN(Cc3ccccc3)CC1)C2 [Example 212] here?
Its IC50 is 500 nM.

How did the IC50 turn out when Cc1cccc2c1CC(=CC1CCN(Cc3ccccc3)CC1)C2=O [Example 213] was run?
Its IC50 is 50 nM.

How did the IC50 turn out when COc1cc2c(cc1O)C(=O)C(=CC1CCN(Cc3ccccc3)CC1)C2 [Example 214] was run?
The IC50 was 8.4 nM.

Which IC50 does the source give for COc1cc2c(cc1OCc1ccccc1)CC(=CC1CCN(Cc3ccccc3)CC1)C2=O [Example 215] here?
The IC50 was 4.2 nM.

For CCOc1cc2c(cc1OCC)C(=O)C(=CC1CCN(Cc3ccccc3)CC1)C2 [Example 216], which IC50 is on record?
Its IC50 is 17 nM.

Which IC50 does the source give for O=C1C(=CC2CCN(Cc3ccccc3)CC2)Cc2cc3c(cc21)OCO3 [Example 217] here?
The IC50 was 140 nM.

O=C1C(=CC2CCN(Cc3ccccc3)CC2)CCc2ccccc21 [Example 218] was tested. Which IC50 did it give?
The IC50 was 20000 nM.

O=C1C(=CC2CCN(Cc3ccccc3)CC2)CCCc2ccccc21 [Example 219] was tested. Which IC50 did it give?
The IC50 was 19000 nM.

For CC(=CC1CCN(Cc2ccccc2)CC1)C(=O)c1ccccc1 [Example 220], which IC50 is on record?
Its IC50 is 11000 nM.

Reference: US4895841A (priority 1987, dated 1990)
